Entries after “also recorded” stand apart in the source; their conditions may differ. Where two headings read alike, the source gives them in different places. Where no end group is shown, it is not given here.

Series [1] relates to Pseudomonas aeruginosa. It is filed as cell-based. The method, then:
(§1) In order to evaluate whether the antimicrobial peptides of the present disclosure have antimicrobial activity against bacteria other than Escherichia coli, antimicrobial effects against Escherichia coli, Staphylococcus aureus, Pseudomonas aeruginosa, and Candida albicans, which were strains announced by the Ministry of Food and Drug Safety, were examined.
(§2) Specifically, Escherichia coli, Staphylococcus aureus, and Pseudomonas aeruginosa were cultured using LB medium, and Candida albicans was cultured using YM medium, and then the cultured bacteria were dispensed into a 96-well plate. Antimicrobial peptide samples at various concentrations were added into the respective wells, and incubation was performed at 37° C. for 24 hours.

For series [2], the system named is Escherichia coli. It is filed as cell-based. The method, then: as §1, §2
For series [3], the system named is Staphylococcus aureus. It is filed as cell-based. The method, then:
as §1, §2

For series [4], the system named is Candida albicans. It is filed as cell-based. The method, then: as §1, §2
The subject of series [5] is Human keratinocytes (HaCaT). Particulars: 24 hours, comparison between peptides, FIGS. 1B-4B.
Procedure: Therefore, cytotoxicity to human keratinocytes was also evaluated by treating human keratinocytes with antimicrobial peptides and measuring cell viability.
Human keratinocytes (HaCaT) were purchased from ATCC (American Type Culture Collection, USA) and cultured in Dulbecco's modified Eagle's medium (DMEM, Gibco, USA) containing 10% fetal bovine serum (FBS, Gibco, USA) and 1% antibiotic-antimycotic (Gibco, USA) at 37° C. in a 5% CO2 incubator.
MTT assay was performed to determine the viability of HaCaT cells against antimicrobial peptides. HaCaT cells were cultured in a 96-well plate at 2×10^5 cells/mL for 24 hours, then treated with samples at various concentrations, and cultured again for 24 hours. The culture medium was removed, and the cells were treated with MTT solution (0.5 mg/mL in PBS). After 4 hours, the MTT solution was removed, DMSO was added to each well, and formazan was dissolved at 37° C. for 30 minutes. Absorbance was measured at 570 nm using a microplate reader (Molecular Devices Spectra MAX, Sunnyvale, CA, USA).
Series [6] deals with Escherichia coli. It is filed as cell-based. The conditions noted are these: for antimicrobial activity against Escherichia coli (in words): comparison between peptides, FIGS. 1A-4A. The method, then:
Specifically, in order to evaluate the antimicrobial activity, the antimicrobial activity against Escherichia coli was measured, and Escherichia coli was treated with antimicrobial peptides, and cell viability was measured and compared.
In order to test the antimicrobial efficacy of antimicrobial peptides, Escherichia coli was cultured in LB medium for about 8 hours, and then the cultured bacteria were dispensed into a 96-well plate. Antimicrobial peptide samples at various concentrations were added into the respective wells, and incubation was performed at 37° C. for 24 hours.
In order to evaluate the antimicrobial activity against Escherichia coli, MIC (minimum inhibitory concentration) and IC50 were additionally measured in addition to the experiments conducted in Examples 1-1 and 1-2.
Specifically, an antimicrobial efficacy experiment was used as the experimental method, and the MIC and IC50 values for the experimental results were calculated by evaluating the minimum inhibitory concentration and the 50% inhibitory concentration with the absorbance and OD value, respectively.

The test system of series [7] is Candida albicans. The experiment in a line: Disk diffusion test (Kirby-Bauer): Candida albicans. It is filed as cell-based. Particulars: 10 μL sample, 37° C. for 16 hours. The procedure: (§3) In order to perform a disk diffusion test for the four kinds of bacteria, the following experiment was conducted.
(§4) After Escherichia coli, Staphylococcus aureus, Pseudomonas aeruginosa, and Candida albicans were cultured in the respective media, a certain amount of the cultured bacteria was spread on unhardened solid media, and then the media were hardened. On the surface of the hardened solid medium, 10 μL of antimicrobial peptide sample was placed, a dry 3M paper disk was put thereon, then incubation was performed at 37° C. for 16 hours, and the size of the zone of inhibition was observed.
(A growth-free zone around the sample is the usual read-out of agar diffusion tests.)

The subject of series [8] is Staphylococcus aureus. In words: Disk diffusion test (Kirby-Bauer): Staphylococcus aureus. Particulars: 10 μL sample, 37° C. for 16 hours. It is filed as cell-based. The procedure: as §3, §4
In series [9] the test system is Pseudomonas aeruginosa. In words: Disk diffusion test (Kirby-Bauer): Pseudomonas aeruginosa. Particulars: 10 μL sample, 37° C. for 16 hours. It is filed as cell-based. The procedure: as §3, §4
Series [10] has as its system Escherichia coli. The experiment in a line: SEM analysis of Escherichia coli treated with peptide. It is filed as cell-based. Particulars: Escherichia coli treated for 30 minutes. The method, then: In order to closely examine the effect of the antimicrobial peptide of the present disclosure on microorganisms, Escherichia coli was treated with the peptide of SEQ ID NO: 6 for 30 minutes, and then the antimicrobial effect was analyzed using a scanning electron microscope (SEM).
Specifically, for SEM analysis, Escherichia coli was cultured using LB medium, then a certain amount of cultured Escherichia coli was taken and treated with the peptide of SEQ ID NO: 6 for 30 minutes, washed with PBS 2 times, and then fixed with a primary fixative of 2% paraformaldehyde in PBS for 2 hours. After fixation, washing with PBS was performed 2 times, dehydration with 30%, 50%, 70%, 80%, 95%, and 100% ethanol was performed for 10 minutes in each step (the last treatment with 100% ethanol was repeated 3 times), and the pellets were lyophilized. After platinum coating using a coater, analysis by SEM was conducted.

Series [11] concerns Escherichia coli. In words: Disk diffusion test (Kirby-Bauer): Escherichia coli. Particulars: 10 μL sample, 37° C. for 16 hours. It is filed as cell-based. The procedure: as §3, §4
Where [12] appears, read: Pseudomonas aeruginosa, LB medium, 24 hours at 37° C., read-out: IC50.
Setting [13] is: Escherichia coli, LB medium, 24 hours at 37° C., read-out: IC50.
The mark [14] stands for this setting: Staphylococcus aureus, LB medium, 24 hours at 37° C., read-out: IC50.
Where [15] appears, read: Candida albicans, YM medium, 24 hours at 37° C., read-out: IC50.
Where [16] appears, read: Escherichia coli, 24 hours at 37° C., absorbance 600 nm.
Where [17] appears, read: Escherichia coli, 24 hours at 37° C., absorbance 600 nm, read-out: IC50.

The term IC50 denotes the concentration at which inhibition is half-maximal. Consider `CC[C@H](C)[C@H](NC(=O)[C@H](CCCCN)NC(=O)[C@H](CCCCN)NC(=O)[C@H](Cc1ccccc1)NC(=O)[C@H](CC(C)C)NC(=O)[C@H](CCCCN)NC(=O)[C@@H](N)CCCCN)C(=O)N[C@@H](CC(C)C)C(=O)N[C@@H](CCCCN)C(=O)N[C@@H](Cc1ccc(O)cc1)C(=O)N[C@@H](CC(C)C)C(=O)N[C@@H](CCCCN)C(=O)O` [SEQ ID NO: 1, H2N-[Lys-Lys-Leu-Phe-Lys-Lys-Ile-Leu-Lys-Tyr-Leu-Lys]-CO2H], for which the IC50 in the series with Pseudomonas aeruginosa [1] (setting [12]) amounted to 12 µM; with Escherichia coli [2] (setting [13]), 21 µM; with Staphylococcus aureus [3] (setting [14]), 22 µM; with Candida albicans [4] (setting [15]), 19 µM. Further, in [5], the “toxicity level to human keratinocytes (in words)” value was “maintained at a similar level to that of the known peptide”. The “antimicrobial activity against Escherichia coli (in words)” value (from here on “antimicrobial activity”) with Escherichia coli [6] is on record as “remarkably increased compared to that of the known peptide”.
The term MIC denotes the smallest concentration in the dilution series that meets the test's criterion for growth inhibition. As to “RRLFRRILRYLR [SEQ ID NO: 2, H2N-[Arg-Arg-Leu-Phe-Arg-Arg-Ile-Leu-Arg-Tyr-Leu-Arg]-CO2H]”, the IC50 in the series on Pseudomonas aeruginosa [1] (setting [12]) stood at 10 µM; with Escherichia coli [2] (setting [13]) it was 14 µM; in the series with Staphylococcus aureus [3] (setting [14]), 17 µM; in the series on Candida albicans [4] (setting [15]) it was 13 µM; in the series on Escherichia coli [6] (setting [17]), 14 µM. The “toxicity level to human keratinocytes (in words)” value in series [5] was “maintained at a level similar to that of SEQ. ID NO: 1 peptide; also recorded: greatly decreased compared to that of the peptides of SEQ ID NO: 3 and SEQ ID NO: 4”. In the series on Escherichia coli [6] (setting [16]), this compound gave an MIC of 62.5 µM. In the series on Escherichia coli [6], the “antimicrobial activity” value was “remarkably increased compared to that of the peptide of SEQ ID NO: 1; also recorded: remarkably excellent compared to that of the peptides of SEQ ID NO: 3 and SEQ ID NO: 4”.
For “RKLFRKILKYLR [SEQ ID NO: 8, H2N-[Arg-Lys-Leu-Phe-Arg-Lys-Ile-Leu-Lys-Tyr-Leu-Arg]-CO2H]”, the IC50 was 5 µM in the series with Pseudomonas aeruginosa [1] (setting [12]); 10 µM in the series with Escherichia coli [2] (setting [13]); 10 µM in the series on Staphylococcus aureus [3] (setting [14]); 8 µM in the series with Candida albicans [4] (setting [15]); 10 µM in the series with Escherichia coli [6] (setting [17]). The same compound registered a minimum inhibitory concentration (MIC) with Escherichia coli [6] (setting [16]) of 31.25 µM. Also, in the series on Escherichia coli [6], the “antimicrobial activity” value is reported as “most remarkably excellent”.
As for “H-KRLFKRILRYLK-OH [SEQ ID NO: 7, H2N-[Lys-Arg-Leu-Phe-Lys-Arg-Ile-Leu-Arg-Tyr-Leu-Lys]-CO2H]”, the IC50 amounted to 8 µM in the series with Pseudomonas aeruginosa [1] (24 h); 11 µM in the series on Escherichia coli [2] (24 h); 13 µM with Staphylococcus aureus [3] (24 h); 10 µM in the series on Candida albicans [4] (24 h); 11 µM in the series with Escherichia coli [6] (24 h). Further, the MIC against Escherichia coli [6] (24 h) turned out to be 62.5 µM.
“RKLFKRILRYLK [SEQ ID NO: 5, H2N-[Arg-Lys-Leu-Phe-Lys-Arg-Ile-Leu-Arg-Tyr-Leu-Lys]-CO2H]”: the half-maximal inhibitory concentration (IC50) came out at 9 µM in the series with Pseudomonas aeruginosa [1] (setting [12]); 12 µM with Escherichia coli [2] (setting [13]); 15 µM in the series with Staphylococcus aureus [3] (setting [14]); 11 µM in the series on Candida albicans [4] (setting [15]); 12 µM in the series with Escherichia coli [6] (setting [17]). The compound further came in with an MIC in the series with Escherichia coli [6] (setting [16]) of 62.5 µM.
Regarding “KRLFRKILKYLR [SEQ ID NO: 6, H2N-[Lys-Arg-Leu-Phe-Arg-Lys-Ile-Leu-Lys-Tyr-Leu-Arg]-CO2H]”, the zone of inhibition entry in the series on Candida albicans [7], with Staphylococcus aureus [8], with Pseudomonas aeruginosa [9] and in the series on Escherichia coli [11] was “transparent zones of inhibition with clear borders” in each case. Besides, the “effect on cell membrane observed by SEM” value with Escherichia coli [10] was “entire cell membrane of Escherichia coli is destroyed to form large pores and elution of cell contents of the bacteria is observed”. The IC50 in the series with Pseudomonas aeruginosa [1] (setting [12]) stood at 4 µM; in the series on Escherichia coli [2] (setting [13]), 9 µM; in the series on Staphylococcus aureus [3] (setting [14]), 10 µM; with Candida albicans [4] (setting [15]) it was 6 µM; in the series on Escherichia coli [6] (setting [17]) it was 9 µM. This compound also had an MIC in the series with Escherichia coli [6] (setting [16]) of 31.25 µM. Besides, the “antimicrobial activity” value in the series with Escherichia coli [6] is reported as “most remarkably excellent”.

For the origin of these results see patent publication US20250270256A1, “NOVEL ANTIMICROBIAL PEPTIDE WITH EXCELLENT MICROBIAL CYTOPLASM ELUTION EFFECT” (CELLICON LAB INC., priority 2021, published 2025).
